In one series the test system is iv L1210 leukemia. Particulars: for ILS: iv L1210 (10^6 cells), Days 1 & 5, route ip in table head (iv).
Another series has as its system ip L1210 leukemia. Description: ip-implanted L1210 leukemia in mice.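 Note: each mouse received 10^6 L1210 cells intraperitoneally, with drug treatment also given by the i.p. route.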 The settings on record: ip L1210 (10^6 cells); drug i.p. Days 1 and 5 at maximally tolerated dose.
A short description of series [1]: in vivo. The settings on record: mouse, iv.
Excerpt: (§1) Animals were inoculated iv with 10^6 cells. Increase in lifespan (ILS) is based on median survival time of groups of 6 mice relative to untreated controls.
(§2) The protocols utilized for the evaluation of the antitumor activity of Formula (I) compounds are well established and widely utilized by those skilled in the art of assessing the activity of drugs in preclinical tumor models. These studies generally follow the protocols established by the National Cancer Institute as described by Geran et al., Cancer Chemotherapy Reports, Part 3, Vol. 3, 1-103, 1972.
(§3) Tumors used in these studies P388 leukemia, L1210 leukemia and Lewis lung carcinoma--are maintained by serial transplantation in syngeneic strains of mice, DBA/2 for the leukemias and C57B1/6 for Lewis lung carcinoma. The leukemias are serially transplanted i.p. as ascites cell suspensions while the Lewis lung carcinoma is serially transplanted as a s.c. solid tumor.
(§4) For therapeutic trials, tumors were aseptically removed from donor mice and prepared as suspensions for implantation into test animals which for each tumor are syngeneic female F1 hybrid B6D2F1 mice (C57B1/6×DBA/2). The inoculum level varies with the type of tumor: P388 leukemia is inoculated at 10^6 cells per mouse, L1210 leukemia at 10^5 or 10^6 cells per mouse, and Lewis lung carcinoma at 0.25 ml of a 10 percent (w:v) brei. […] After tumor inoculation, mice are randomized to treatment groups of 6 to 8 mice each. In each experiment, there are three groups of untreated control mice.
(§5) Drugs are dissolved or suspended in appropriate aqueous vehicles and given i.p. or i.v. on various treatment schedules over a range of dosage levels. Animals are housed in shoebox cages and monitored daily for mortality for 30 (L1210), 45 (P388) or 60 (Lewis lung) days.
The nature of series [2]: in vivo. The settings on record: mouse, ip.
Description: (§6) For in vivo studies L1210 cells were implanted i.p. (10^6 per mouse)
(§7) and drugs were administered i.p. on Days 1 and 5. Increase in lifespan
(§8) (ILS) was based on median survival time of groups of 6 mice treated at th
maximally tolerated dose of the drugs.

Counter-ions that a name gives are not always drawn. Like-named read-outs stand apart in the source and are kept apart here. Where only a bound is given, the exact number is not on record here.

Description for ip L1210 leukemia: as §6, §7, §8
maximally tolerated dose of the drugs.
Excerpt for iv L1210 leukemia: as §1, §2, §3, §4, §5

What is called ILS is the gain in survival time of treated over control animals, in per cent. Low values mean little gain in survival, high ones much gain in survival. For `CC[C@@](O)(C(=O)O)c1cc2n(c(=O)c1CO)Cc1cc3c(CN(C)C)c(O)ccc3nc1-2` [21S, Sodium Salt], the “fold less potent than the three acid salts” value in the series with iv L1210 leukemia (by maximally tolerated dose, iv L1210) is listed as “about 3.5 fold”. For the same molecule, the ILS with iv L1210 leukemia (6.5 mg/kg) was 33%; in the series on iv L1210 leukemia (12 mg/kg) it was 67%; in the series with iv L1210 leukemia (19 mg/kg) it was 100%; with iv L1210 leukemia (32 mg/kg) it was 133%; in the series on iv L1210 leukemia (54 mg/kg), 208%; in the series on iv L1210 leukemia (90 mg/kg), “toxic”. Further, the “In Vivo Antitumor Activity ILS (increase in lifespan)” value in the series with ip L1210 leukemia is on record as over 200%. For the same molecule, the MTD in the series “in vivo [1]” and in “in vivo [2]” was 54 mg/kg in each case.

Values taken from patent US5004758A, “Water soluble camptothecin analogs useful for inhibiting the growth of animal tumor cells” (priority 1988, dated 1991).
